Reference: patent US20150031714A1, “METHODS AND COMPOSITIONS FOR PREVENTION OF ALLERGIC REACTION” (Baylor College of Medicine, priority 2013, published 2015)

Key:
[1] = test system: breast cancer cell lines; experiment: Apoptosis of breast cancer cell lines with constitutive Stat3 activation; type: cell-based
[2] = test system: MEF/GFP-Stat3α cells; experiment: High-throughput fluorescence microscopy (HTFM) cytoplasmic-to-nuclear translocation of GFP-Stat3α; type: cell-based, murine; settings: Mus musculus, 0.5 h; Table 4; MEF/GFP-Stat3α, IL-6 200 ng/ml and IL-6sR 250 ng/ml 30 min; read-out: HTM IC50
Protocol: Coverslips were examined by confocal fluorescent microscopy using filters to detect GFP (column one), DAPI (column two) or both (merge; column three). In panel B, MEF-GFP-Stat3 cells were grown in 96-well plates with optical glass bottoms and pretreated with the indicated compound at the indicated concentrations in quadruplicate for 1 hour then stimulated with IL-6 (200 ng/ml) and IL-6sR (250 ng/ml) for 30 minutes. Cells were fixed and the plates were examined by high-throughput microscopy to determine the fluorescence intensity in the nucleus (FLIN) and the % ΔFLINMax was calculated as described in Example 1. Data shown are mean±SD and are representative of 2 or more studies. Best-fit curves were generated based on 4 Parameter Logistic Model/Dose Response One Site/XLfit 4.2, IDBS and were used to calculate IC50 (Table 1).
Confocal and high-throughput fluorescence microscopy. Confocal and highthroughput fluorescence microscopy (HTFM) of MEF/GFP-Stat3α cells were performed as described (Huang et al., 2007). Briefly, for confocal fluorescence microscopy, cells were grown in 6-well plates containing a cover slip. For HTFM, cells were seeded into 96-well CC3 plates at a density of 5,000 cells/well using an automated plating system. Cells were cultured under standard conditions until 85-90% confluent. Cells were pretreated with compound for 1 hour at 37° C. then stimulated with IL-6 (200 ng/ml) and IL-6sR (250 ng/ml) for 30 minutes. […] Plates were analyzed by automated HTFM using the Cell Lab IC Image Cytometer (IC100) platform and CytoshopVersion 2.1 analysis software (Beckman Coulter). Nuclear translocation is quantified by using the fraction localized in the nucleus (FLIN) measurement (Sharp et al., 2006). […]
EXP IIB. High throughput fluorescence microscopy (HTFM), cytoplasm-to-nucleus translocation inhibition assays. […] Plates are analyzed by automated HTFM using the Cell Lab IC Image Cytometer (IC100) platform and CytoshopVersion 2.1 analysis software (Beckman Coulter). […]

[3] = target: T1, Stat3-DNA (hSIE) complexes (Homo sapiens, UniProt P40763); experiment: Electrophoretic mobility shift assay (EMSA), Stat3:hSIE DNA binding; type: biochemical; settings: 300 μM, extracts of IL-6-stimulated HepG2 cells
T1 construct: high salt extracts were prepared from HepG2 cells incubated without or with IL-6 (30 ng/ml) for 30 minutes; endogenous in cells; host or cells: HepG2 (IL-6-stimulated), whole-cell high-salt extract
Protocol: Electrophoretic mobility shift assays were performed using whole-cell extracts prepared from HepG2 cells without and with stimulation with IL-6 (30 ng/ml) for 30 min. Protein (20 μg) was incubated with radiolabeled duplex oligonucleotide (hSIE) and DMSO without or with the indicated compounds (300 uM) for 60 minutes at 37° C. then separated by PAGE. The gel was dried and autoradiographed; the portion of the gel corresponding to the Stat3-bound hSIE band is shown. Data shown are representative of 2 studies.
Electrophoretic Mobility Shift Assay (EMSA): EMSA was performed using the hSIE radiolabeled duplex oligonucleotide as a probe as described (Tweardy et al., 1995). Briefly, high salt extracts were prepared from HepG2 cells incubated without or with IL-6 (30 ng/ml) for 30 minutes. Protein concentration was determined by Bradford Assay and 20 ug of extract was incubated with compound (300 uM) for 60 minutes at 37 °C. […] Gels were dried and autoradiographed.
Once in the nucleus, Stat3 dimers bind to specific DNA elements to activate and, in some instances, repress gene transcription. […] Compounds that bind to the phosphopeptide-binding site of Stat3 might be expected to do the same. […]

T1 sequence (P40763 2-770 limits assumed, one chain of several): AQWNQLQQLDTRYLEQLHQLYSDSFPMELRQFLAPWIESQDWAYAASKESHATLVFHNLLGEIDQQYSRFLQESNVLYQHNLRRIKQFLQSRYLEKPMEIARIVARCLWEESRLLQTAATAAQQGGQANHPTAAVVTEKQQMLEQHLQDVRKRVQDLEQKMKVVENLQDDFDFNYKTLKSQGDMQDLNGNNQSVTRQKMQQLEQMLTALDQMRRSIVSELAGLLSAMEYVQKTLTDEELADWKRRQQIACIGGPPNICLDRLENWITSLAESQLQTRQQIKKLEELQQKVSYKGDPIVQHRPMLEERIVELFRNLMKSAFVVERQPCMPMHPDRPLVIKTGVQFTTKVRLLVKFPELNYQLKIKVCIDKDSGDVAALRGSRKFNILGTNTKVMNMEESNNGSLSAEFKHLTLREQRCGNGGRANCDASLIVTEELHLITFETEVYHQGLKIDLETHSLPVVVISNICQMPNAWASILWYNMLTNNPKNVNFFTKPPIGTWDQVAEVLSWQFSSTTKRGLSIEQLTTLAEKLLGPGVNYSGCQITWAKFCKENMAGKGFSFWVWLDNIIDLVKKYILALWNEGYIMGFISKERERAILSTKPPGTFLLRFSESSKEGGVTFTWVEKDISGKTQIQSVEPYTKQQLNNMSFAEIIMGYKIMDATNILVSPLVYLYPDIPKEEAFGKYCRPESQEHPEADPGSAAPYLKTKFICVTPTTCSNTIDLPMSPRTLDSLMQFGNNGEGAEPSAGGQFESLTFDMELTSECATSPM

IC50 [2] [µM] | SMILES | induction of apoptosis of breast cancer cell lines [1] | Stat3:hSIE band intensity (amount of hSIE shifted) [3]
131 | O=C(O)c1ccc(C=CC(=O)c2ccc3c(c2)OCCO3)cc1 [Cpd3, 4-[3-(2,3-dihydro-1,4-benzodioxin-6-yl)-3-oxo-1-propen-1-yl]benzoic acid] | induced apoptosis preferentially | reduced the amount of hSIE shifted by half or greater
150 | CCOc1cc(C=C2C(=O)c3ccccc3C2=O)cc(Cl)c1OCc1cccc(C(=O)O)c1 [Cpd3-2, 3-({2-chloro-4-[(1,3-dioxo-1,3-dihydro-2H-inden-2-ylidene)methyl]-6-ethoxyphenoxy}methyl)benzoic acid] | – | –
